System: ApoE
Experiment: ApoE gene expression analysis by qRT-PCR in MeWo cancer cells
Type: cell-based
Settings: 48 h; for Emax at 1 µM / Emax at 10 µM: read-out: ApoE gene expression in relation to GW3965 at 1 μM (100%)
Experimental: Cancer cells (MeWo) were treated in presence of drug or control (DMSO) at indicated concentrations for 48 h. RNA was extracted from whole cell lysates using the Total RNA Purification Kit (17200, Norgen, Thorold, Canada). 600 ng of total RNA was then reverse transcribed into cDNA using the Verso cDNA Synthesis Kit (AB-1453/B, Fisher Scientific). 6 ng of the resulting cDNA was then mixed with SYBR green PCR Master Mix (4309155, Applied Biosystems) and the appropriate primers. Each reaction was performed in quadruplicate, and mRNA expression was quantified by performing real-time PCR amplification using a StepOne Plus Real-Time PCR System (Applied Biosystems). GAPDH was used as an endogenous control for normalization. EC50 values were calculated using Prism6 software and plotting expression values versus drug concentration. The following primers were used: [table] The results are shown in relation to GW3965 ApoE expression at 1 μM (i.e. 100%).

Compound	Emax at 1 µM (Homo sapiens, MeWo, 1 μM)	EC50 (Homo sapiens, MeWo)	Emax at 10 µM (Homo sapiens, MeWo, 10 μM)	ApoE gene expression in relation to GW3965 at 1 μM (100%) (1 μM)	ApoE gene expression in relation to GW3965 at 1 μM (100%) (10 μM)	EC50
CNC(=O)c1c(F)cc(OCCCN(Cc2cccc(C(F)(F)F)c2Cl)CC(c2ccccc2)c2ccccc2)cc1S(C)(=O)=O [Compound 92, 4-[3-({[2-chloro-3-(trifluoromethyl)phenyl]methyl}(2,2-diphenylethyl)amino)-propoxy]-2-fluoro-6-methanesulfonyl-N-methylbenzamide]	> 40%	–	–	–	–	–
CC(=O)NCc1c(F)cc(OCCCN(Cc2cccc(C(F)(F)F)c2Cl)CC(c2ccccc2)c2ccccc2)cc1S(C)(=O)=O [Compound 89, N-({4-[3-({[2-chloro-3-(trifluoromethyl)phenyl]methyl}(2,2-diphenylethyl)amino)propoxy]-2-fluoro-6-methanesulfonylphenyl}methyl)acetamide]	> 80%	< 1000 nM	> 80%	–	–	–
O=C(O)Cc1cccc(OCCCN(Cc2cccc(OC(F)(F)C(F)F)c2)CC(c2ccccc2)c2ccccc2)c1 [Compound 25, 2-(3-{3[(2,2-diphenylethyl)({[3-(1,1,2,2-tetrafluoroethoxy)phenyl]methyl})amino]propoxy}phenyl)acetic acid]	> 40%	–	< 40%	–	–	–
C[C@@H](CCOc1cc(F)c(CO)c(S(C)(=O)=O)c1)N(Cc1cccc(C(F)(F)F)c1Cl)CC(c1ccccc1)c1ccccc1 [Compound 71, {4-[(3S)-3-({[2-chloro-3-(trifluoromethyl)phenyl]methyl}(2,2-diphenylethyl)amino)butoxy]-2-fluoro-6-methanesulfonylphenyl}methanol]	< 40%	–	–	–	–	–
CS(=O)(=O)c1cc(OCCCN(Cc2cccc(C(F)(F)F)c2Cl)CC(c2ccccc2)c2ccccc2)cc(F)c1C(N)=O [Compound 90, 4-[3-({[2-chloro-3-(trifluoromethyl)phenyl]methyl}(2,2-diphenylethyl)amino)-propoxy]-2-fluoro-6-methanesulfonylbenzamide]	> 80%	< 1000 nM	–	–	–	–
CS(=O)(=O)N1CCC[C@H](OCCCN(Cc2cccc(C(F)(F)F)c2Cl)CC(c2ccccc2)c2ccccc2)C1 [Compound 66, {[2-chloro-3-(trifluoromethyl)phenyl]methyl}(2,2-diphenylethyl)(3-{[(3S)-1-methanesulfonylpiperidin-3-yl]oxy}propyl)amine]	–	–	–	+++ (“+++” > 80% ApoE induction)	+++ (“+++” > 80% ApoE induction)	< 3000 nM
CS(=O)(=O)c1cc(OCCCN(Cc2cccc(C(F)(F)F)c2Cl)CC(c2ccccc2)c2ccccc2)cc(F)c1C(=O)O [Compound 35, 4-[3-({[2-chloro-3-(trifluoromethyl)phenyl]methyl}(2,2-diphenylethyl)amino)propoxy]-2-fluoro-6-methanesulfonylbenzoic acid]	< 40%	< 3000 nM	> 40%	–	–	–
[2H]C([2H])(O)c1c(F)cc(OCCCN(Cc2cccc(C(F)(F)F)c2Cl)CC(c2ccccc2)c2ccccc2)cc1S(C)(=O)=O [Compound 84, {4-[3-({[2-chloro-3-(trifluoromethyl)phenyl]methyl}(2,2-diphenylethyl)amino)propoxy]-2-fluoro-6-methanesulfonylphenyl}(^2H2)methanol]	> 40%	–	> 40%	–	–	–
CC(C)(O)c1cccc(OCCCN(Cc2cccc(C(F)(F)F)c2Cl)CC(c2ccccc2)c2ccccc2)c1 [Compound 4, 2-{3-[3-({[2-chloro-3-(trifluoromethyl)phenyl]methyl}(2,2-diphenylethyl)amino)propoxy]phenyl}propan-2-ol]	> 40%	< 1000 nM	> 40%	–	–	–
CS(=O)(=O)c1cc(OCCCN(Cc2cccc(C(F)(F)F)c2Cl)CC(c2ccccc2)c2ccccc2)cc(F)c1C(O)C(F)(F)F (stereo not drawn) [Compound 95, 1-{4-[3-({[2-chloro-3-(trifluoromethyl)phenyl]methyl}(2,2-diphenylethyl)amino)propoxy]-2-fluoro-6-methanesulfonylphenyl}-2,2,2-trifluoroethan-1-ol]	> 40%	–	–	–	–	–
CC(=O)c1c(F)cc(OCCCN(Cc2cccc(C(F)(F)F)c2Cl)CC(c2ccccc2)c2ccccc2)cc1S(C)(=O)=O [Compound 87, 1-{4-[3-({[2-chloro-3-(trifluoromethyl)phenyl]methyl}(2,2-diphenylethyl)amino)propoxy]-2-fluoro-6-methanesulfonylphenyl}ethan-1-one]	> 40%	–	–	–	–	–
C[C@H](CCO[C@@H]1CCCN(S(C)(=O)=O)C1)N(Cc1cccc(C(F)(F)F)c1Cl)CC(c1ccccc1)c1ccccc1 [Compound 30, {[2-chloro-3-(trifluoromethyl)phenyl]methyl}(2,2-diphenylethyl)[(2R)-4-{[(3R)-1-methanesulfonylpiperidin-3-yl]oxy}butan-2-yl]amine]	> 40%	–	> 80%	–	–	–
CC(C)(O)c1c(F)cc(OCCCN(Cc2cccc(C(F)(F)F)c2Cl)CC(c2ccccc2)c2ccccc2)cc1S(C)(=O)=O [Compound 60, 2-{4-[3-({[2-chloro-3-(trifluoromethyl)phenyl]methyl}(2,2-diphenylethyl)amino)propoxy]-2-fluoro-6-methanesulfonylphenyl}propan-2-ol]	> 40%	< 300 nM	> 80%	–	–	–
CS(=O)(=O)c1cc(OCCCN(Cc2cccc(C(F)(F)F)c2)CC(c2ccccc2)c2ccccc2)cc(F)c1CO [Compound 73, (4-{3-[(2,2-diphenylethyl)({[3-(trifluoromethyl)phenyl]methyl})amino]propoxy}-2-fluoro-6-methanesulfonylphenyl)methanol]	> 80%	–	> 80%	–	–	–
CS(=O)(=O)c1cc(OCCCN(Cc2cccc(C(F)(F)F)c2Cl)CC(c2ccccc2)c2ccccc2)cc(F)c1C(=O)C(F)(F)F [Compound 93, 1-{4-[3-({[2-chloro-3-(trifluoromethyl)phenyl]methyl}(2,2-diphenylethyl)amino)propoxy]-2-fluoro-6-methanesulfonylphenyl}-2,2,2-trifluoroethan-1-one]	< 40%	–	< 40%	–	–	–
CS(=O)(=O)c1cc(OCCCN(Cc2ccccc2)Cc2cccc(C(F)(F)F)c2Cl)cc(F)c1CO [Compound 83, (4-{3-[benzyl({[2-chloro-3-(trifluoromethyl)phenyl]methyl})amino]propoxy}-2-fluoro-6-methanesulfonylphenyl) methanol]	> 80%	< 1000 nM	–	–	–	–
CS(=O)(=O)N1CC(OCCCN(Cc2cccc(C(F)(F)F)c2Cl)CC(c2ccccc2)c2ccccc2)C1 [Compound 62, {[2-chloro-3-(trifluoromethyl)phenyl]methyl} (2,2-diphenylethyl){3-[(1-methanesulfonylazetidin-3-yl)oxy]propyl}amine]	> 80%	< 1000 nM	> 80%	–	–	–
CC(CCN(Cc1cccc(C(F)(F)F)c1Cl)CC(c1ccccc1)c1ccccc1)Oc1cc(F)c(CO)c(S(C)(=O)=O)c1 (stereo not drawn) [Compound 59, (4-{[4-({[2-chloro-3-(trifluoromethyl)phenyl]methyl}(2,2-diphenylethyl)amino)butan-2-yl]oxy}-2-fluoro-6-methanesulfonylphenyl)methanol]	> 40%	< 300 nM	> 40%	–	–	–
CC(O)c1c(F)cc(OCCCN(Cc2cccc(C(F)(F)F)c2Cl)CC(c2ccccc2)c2ccccc2)cc1S(C)(=O)=O (stereo not drawn) [Compound 85, 1-{4-[3-({[2-chloro-3-(trifluoromethyl)phenyl]methyl}(2,2-diphenylethyl)amino)propoxy]-2-fluoro-6-methanesulfonylphenyl}ethan-1-ol]	> 80%	< 1000 nM	–	–	–	–
CS(=O)(=O)c1cccc(OCCCN(Cc2cccc(C(F)(F)F)c2Cl)CC(c2ccccc2)c2ccccc2)c1 [Compound 7, {[2-chloro-3-(trifluoromethyl)phenyl]methyl}(2,2-diphenylethyl)[3-(3-methanesulfonylphenoxy)propyl]amine]	> 80%	< 1000 nM	> 40%	–	–	–
C[C@H](CN(CCCOc1cc(F)c(CO)c(S(C)(=O)=O)c1)Cc1cccc(C(F)(F)F)c1Cl)c1ccccc1 [Compound 80, {4-[3-({[2-chloro-3-(trifluoromethyl)phenyl]methyl}[(2S)-2-phenylpropyl]amino)propoxy]-2-fluoro-6-methanesulfonylphenyl}methanol]	> 80%	< 1000 nM	> 80%	–	–	–
CS(=O)(=O)c1cc(OCCCN(Cc2cccc(C(F)(F)F)c2Cl)CC(c2ccccc2)c2ccccc2)cc(F)c1C=O [Compound 65, 4-[3-({[2-chloro-3-(trifluoromethyl)phenyl]methyl}(2,2-diphenylethyl)amino)propoxy]-2-fluoro-6-methanesulfonyl-benzaldehyde]	> 80%	< 1000 nM	> 80%	–	–	–
CS(=O)(=O)c1cc(OCCCN(Cc2cccc(C(F)(F)F)c2F)CC(c2ccccc2)c2ccccc2)cc(F)c1CO [Compound 72, (4-{3-[(2,2-diphenylethyl)({[2-fluoro-3-(trifluoromethyl)phenyl]methyl})amino]propoxy}-2-fluoro-6-methanesulfonylphenyl)methanol]	> 80%	–	> 80%	–	–	–
CS(=O)(=O)c1cc(OCCCN(Cc2ccc(F)c(C(F)(F)F)c2)CC(c2ccccc2)c2ccccc2)cc(F)c1CO [Compound 75, (4-{3-[(2,2-diphenylethyl)({[4-fluoro-3-(trifluoromethyl)phenyl]methyl})amino]propoxy}-2-fluoro-6-methanesulfonylphenyl)methanol]	> 40%	–	> 80%	–	–	–
